Measurements as given in PMC10840383, “Clinical features, functional consequences, and rescue pharmacology of missense GRID1 and GRID2 human variants” (Human Molecular Genetics, 2023).
Substitutions are numbered along the chain they refer to.

Experiments:
Assay type in all cases: cell-based
Conditions in all cases: positive = increase, negative = decrease of activity
GluD1-WT = target: T1, GluD1-WT (Homo sapiens, UniProt Q9ULK0); experiment: TEVC of constitutive current, Xenopus oocytes expressing GluD1-WT
T1 construct: expressed in transfected cells; host or cells: Xenopus laevis oocytes injected with cRNA
T1 sequence (Q9ULK0 21-1009): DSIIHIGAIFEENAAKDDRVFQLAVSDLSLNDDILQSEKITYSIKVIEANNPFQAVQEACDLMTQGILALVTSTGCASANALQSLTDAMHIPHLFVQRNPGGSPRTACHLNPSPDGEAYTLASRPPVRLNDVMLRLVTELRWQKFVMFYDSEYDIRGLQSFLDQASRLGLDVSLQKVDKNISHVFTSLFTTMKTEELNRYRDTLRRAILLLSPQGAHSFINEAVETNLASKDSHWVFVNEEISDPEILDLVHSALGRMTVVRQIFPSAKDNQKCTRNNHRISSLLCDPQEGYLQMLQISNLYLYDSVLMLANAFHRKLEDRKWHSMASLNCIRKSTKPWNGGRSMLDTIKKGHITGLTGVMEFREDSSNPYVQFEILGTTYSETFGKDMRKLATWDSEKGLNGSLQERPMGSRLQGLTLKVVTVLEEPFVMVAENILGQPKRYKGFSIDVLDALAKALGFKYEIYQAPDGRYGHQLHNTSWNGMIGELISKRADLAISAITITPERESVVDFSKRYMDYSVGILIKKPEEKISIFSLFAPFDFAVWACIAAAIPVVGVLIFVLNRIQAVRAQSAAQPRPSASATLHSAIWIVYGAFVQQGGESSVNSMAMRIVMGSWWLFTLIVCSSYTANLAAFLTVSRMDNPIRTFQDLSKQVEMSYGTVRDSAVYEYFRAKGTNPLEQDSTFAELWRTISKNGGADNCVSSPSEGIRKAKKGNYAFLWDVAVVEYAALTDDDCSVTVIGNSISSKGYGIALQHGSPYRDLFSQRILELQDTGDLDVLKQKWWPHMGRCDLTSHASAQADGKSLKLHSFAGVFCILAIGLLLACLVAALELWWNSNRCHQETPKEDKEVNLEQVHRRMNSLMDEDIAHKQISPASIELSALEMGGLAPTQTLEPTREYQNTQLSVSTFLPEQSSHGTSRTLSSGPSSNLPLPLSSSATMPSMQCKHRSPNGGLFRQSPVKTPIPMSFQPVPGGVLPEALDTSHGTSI

GluD2-D535E = target: T2, GluD2-D535E (Rattus norvegicus, UniProt Q63226, D535E); experiment: TEVC of constitutive current, Xenopus oocytes expressing GluD2-D535E
T2 construct: expressed in transfected cells; host or cells: Xenopus laevis oocytes injected with cRNA
T2 sequence (Q63226 24-1007 D535E): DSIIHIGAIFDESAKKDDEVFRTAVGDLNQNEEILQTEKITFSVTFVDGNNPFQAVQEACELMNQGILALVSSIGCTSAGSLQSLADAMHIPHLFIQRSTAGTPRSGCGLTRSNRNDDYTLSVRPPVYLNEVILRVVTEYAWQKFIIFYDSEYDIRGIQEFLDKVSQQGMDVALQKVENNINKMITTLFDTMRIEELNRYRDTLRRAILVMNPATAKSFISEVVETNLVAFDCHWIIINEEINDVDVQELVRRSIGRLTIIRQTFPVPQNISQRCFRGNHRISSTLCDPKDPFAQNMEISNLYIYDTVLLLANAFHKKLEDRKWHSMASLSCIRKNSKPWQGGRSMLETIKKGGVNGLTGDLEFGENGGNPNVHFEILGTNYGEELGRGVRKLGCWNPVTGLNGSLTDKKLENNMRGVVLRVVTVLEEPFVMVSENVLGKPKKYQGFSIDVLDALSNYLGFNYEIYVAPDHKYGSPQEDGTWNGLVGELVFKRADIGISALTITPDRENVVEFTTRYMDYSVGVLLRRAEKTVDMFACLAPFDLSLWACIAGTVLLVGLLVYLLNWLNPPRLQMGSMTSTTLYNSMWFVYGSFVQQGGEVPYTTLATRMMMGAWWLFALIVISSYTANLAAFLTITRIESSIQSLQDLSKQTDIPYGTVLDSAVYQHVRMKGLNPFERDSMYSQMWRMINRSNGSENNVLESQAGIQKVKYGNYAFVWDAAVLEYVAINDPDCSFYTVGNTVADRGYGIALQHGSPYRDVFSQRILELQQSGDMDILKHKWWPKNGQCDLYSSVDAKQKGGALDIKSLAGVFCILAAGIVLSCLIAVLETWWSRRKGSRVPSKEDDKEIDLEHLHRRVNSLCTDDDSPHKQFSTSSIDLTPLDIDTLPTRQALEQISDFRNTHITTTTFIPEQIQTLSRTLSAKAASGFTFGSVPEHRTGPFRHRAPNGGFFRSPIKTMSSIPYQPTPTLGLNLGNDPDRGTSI

GluD2-S646P = target: T3, GluD2-S646P (Rattus norvegicus, UniProt Q63226, S646P); experiment: TEVC of constitutive current, Xenopus oocytes expressing GluD2-S646P
T3 construct: expressed in transfected cells; host or cells: Xenopus laevis oocytes injected with cRNA
T3 sequence (Q63226 24-1007 S646P): T2 sequence (Q63226 24-1007 D535E) with E512D, S623P

D-Serine effect (Baseline −10 mM D-Serine) (GluD1-WT; 10 mM D-serine) | D-Serine effect (Baseline −10 mM D-Serine) (GluD2-D535E; 10 mM D-serine) | D-Serine effect (Baseline −10 mM D-Serine) (GluD2-S646P; 10 mM D-serine) | Structure (SMILES) | Pentamidine effect (Baseline −100 μM Pentamidine) (GluD1-WT; 100 μM pentamidine) | Pentamidine effect (Baseline −100 μM Pentamidine) (GluD2-D535E; 100 μM pentamidine) | Pentamidine effect (Baseline −100 μM Pentamidine) (GluD2-S646P; 100 μM pentamidine)
– | – | – | N=C(N)c1ccc(OCCCCCOc2ccc(C(=N)N)cc2)cc1 [Pentamidine, pentamidine] | 37 ± 11 (14) nA | −0.67 ± 1.1 (12) nA | 6.5 ± 5.4 (11) nA
2.3 ± 2.9 (13) nA | −5.8 ± 2.4 (12) nA | 5.2 ± 6.0 (11) nA | N[C@H](CO)C(=O)O [D-serine] | – | – | –
